Literature values in US20100209480A1, “GALENICAL FORMULATIONS OF ORGANIC COMPOUNDS” (priority 2007, published 2010).

Details: drug substance

Hygroscopicity: highly hygroscopic
Compound: COCCCOc1cc(C[C@@H](C[C@H](N)[C@@H](O)C[C@H](C(=O)NCC(C)(C)C(N)=O)C(C)C)C(C)C)ccc1OC [Aliskiren, 2(S),4(S),5(S),7(S)—N-(3-amino-2,2-dimethyl-3-oxopropyl)-2,7-di(1-methylethyl)-4-hydroxy-5-amino-8-[4-methoxy-3-(3-methoxy-propoxy)phenyl]-octanamide]
